According to patent US9073974B2, “RGD-containing cyclic peptides” (The Regents of the University of California, priority 2009, dated 2015):
Read-outs that look alike come from different tables or passages of the source. Numbered stars: 1 amine (or outer) side, 2 acyl side, 3 side chain; on linkers, the order of the positions; unused ones are H or OH. Bridge positions count the residues as written; N and C are the ends. Square brackets hold non-standard residues; d marks the D form. Ends that are not written are not given here. Peptide text beside a SMILES is read from it. N(CH2CH2CO)Gly = O=C(CN(CCC(=O)[*:3])[*:1])[*:2]; Pro(5R-Ph) = O=C(O)[C@@H]1CC[C@H](c2ccccc2)N1; dAla(4-thiazolyl) = N[C@H](Cc1cscn1)C(=O)O; d(αMeV) = CC(C)[C@@](C)(N)C(=O)O; dCit = NC(=O)NCCC[C@@H](N)C(=O)O

What was measured:
[1] = biological target: αvβ3 integrin (Homo sapiens, UniProt P05106+P06756); assay: Inhibition of FITC-Echistatin binding to αvβ3-K562 cells (flow cytometry); set-up: expressed in transfected cells; host or cells: K562 (gift of Dr. Yoshikazu Takada, UC Davis); conditions: for binding affinity compared with LXW7 or the Arg parent, in words: LXW1-8 series
Protocol: The samples were analyzed with Coulter XL-MCL flow cytometry. The histogram and mean fluorescence intensity (MFI) were determined. The apparent Kd, IC50 were calculated using Graph Prism software (≦www.graphpad.com≧).

[2] = test system: U-87 MG xenograft; assay: In vivo and ex vivo near infra red fluorescent imaging, U-87 MG xenograft; set-up: species or system nude mice; conditions: complex of Streptavidin-Cy5.5 with biotinylated peptide, 6 hrs after tail vein injection
Protocol: Animal studies were performed according to a protocol approved by IACUC of the University of California, Davis.
Animals were placed on a sheet of transparency in different position. […] Images were captured with a CCD camera set at F stop=0, FOV=150, and FP=0. Six hours post injection of imaging complex, the mice were conducted in vivo imaging, then were sacrificed and organs were excised for ex vivo imaging.

[3] = biological target: T1, αvβ3 integrin (human, UniProt P06756 31-1048; P05106 27-788); assay: flow cytometry, competition with biotinylated LXW7 on αvβ3-K562 cells; + = IC50 >10 µM
T1 construct: whole, on cells; Same entry used for αvβ3-K562, U-87 MG and A375M cells; also called αvβ3-K562; αvβ3 transfected K562 cells

[4] = biological target: T1, αvβ3 integrin; assay: flow cytometry, competition with FITC-Echistatin on αvβ3-K562 cells; ++ = IC50 1-10 µM
[5] = biological target: T1, αvβ3 integrin; assay: flow cytometry, competition with biotinylated LXW7 on αvβ3-K562 cells; +++ = IC50 <1 µM
[6] = LXW1-8: inhibition of binding of FITC-Echistatin against αvβ3-K562, class symbols, read-out: IC50

T1 sequence (P06756 31-1048, chain 1 of 2): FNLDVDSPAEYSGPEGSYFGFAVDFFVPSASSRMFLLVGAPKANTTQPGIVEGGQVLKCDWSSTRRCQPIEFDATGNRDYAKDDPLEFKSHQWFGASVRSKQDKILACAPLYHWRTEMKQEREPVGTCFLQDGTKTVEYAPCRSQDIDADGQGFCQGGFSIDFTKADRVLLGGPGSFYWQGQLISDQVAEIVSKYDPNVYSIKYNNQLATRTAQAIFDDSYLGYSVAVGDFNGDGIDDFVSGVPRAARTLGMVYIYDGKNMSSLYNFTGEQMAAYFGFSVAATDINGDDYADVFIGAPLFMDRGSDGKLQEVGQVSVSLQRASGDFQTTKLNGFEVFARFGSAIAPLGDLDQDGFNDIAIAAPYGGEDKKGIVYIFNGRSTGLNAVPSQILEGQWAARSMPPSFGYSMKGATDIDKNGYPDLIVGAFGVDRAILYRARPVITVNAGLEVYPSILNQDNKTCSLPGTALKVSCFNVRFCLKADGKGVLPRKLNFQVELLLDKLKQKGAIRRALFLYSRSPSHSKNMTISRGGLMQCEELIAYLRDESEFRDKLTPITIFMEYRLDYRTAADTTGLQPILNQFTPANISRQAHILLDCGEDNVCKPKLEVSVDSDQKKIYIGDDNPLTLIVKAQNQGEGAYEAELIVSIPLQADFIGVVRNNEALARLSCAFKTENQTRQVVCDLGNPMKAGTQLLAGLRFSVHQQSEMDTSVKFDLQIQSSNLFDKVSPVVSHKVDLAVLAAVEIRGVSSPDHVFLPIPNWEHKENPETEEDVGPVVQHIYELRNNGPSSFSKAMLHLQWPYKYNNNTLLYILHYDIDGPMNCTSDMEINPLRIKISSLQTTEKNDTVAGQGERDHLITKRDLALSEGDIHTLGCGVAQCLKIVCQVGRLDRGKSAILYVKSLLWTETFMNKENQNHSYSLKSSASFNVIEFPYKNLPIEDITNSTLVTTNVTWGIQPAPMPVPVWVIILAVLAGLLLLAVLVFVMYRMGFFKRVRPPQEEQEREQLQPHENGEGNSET
T1 sequence (P05106 27-788, chain 2 of 2): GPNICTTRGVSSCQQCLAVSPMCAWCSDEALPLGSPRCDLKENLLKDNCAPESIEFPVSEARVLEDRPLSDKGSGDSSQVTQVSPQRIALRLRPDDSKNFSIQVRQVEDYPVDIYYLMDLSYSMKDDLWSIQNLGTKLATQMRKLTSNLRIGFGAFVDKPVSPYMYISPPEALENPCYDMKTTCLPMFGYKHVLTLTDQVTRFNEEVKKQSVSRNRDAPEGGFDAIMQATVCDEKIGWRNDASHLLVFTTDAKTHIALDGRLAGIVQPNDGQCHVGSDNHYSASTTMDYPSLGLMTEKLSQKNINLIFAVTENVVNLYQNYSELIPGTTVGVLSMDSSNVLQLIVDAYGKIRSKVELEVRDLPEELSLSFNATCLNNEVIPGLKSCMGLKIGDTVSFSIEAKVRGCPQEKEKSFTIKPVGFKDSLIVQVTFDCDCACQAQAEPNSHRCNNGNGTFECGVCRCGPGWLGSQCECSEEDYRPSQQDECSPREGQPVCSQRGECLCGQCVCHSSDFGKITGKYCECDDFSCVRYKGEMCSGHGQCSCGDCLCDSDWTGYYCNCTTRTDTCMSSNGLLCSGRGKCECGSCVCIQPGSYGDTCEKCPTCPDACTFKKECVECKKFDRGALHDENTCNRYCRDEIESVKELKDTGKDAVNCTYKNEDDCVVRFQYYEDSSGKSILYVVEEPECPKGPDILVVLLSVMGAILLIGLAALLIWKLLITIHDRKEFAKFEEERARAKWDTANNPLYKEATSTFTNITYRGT
Sequence of αvβ3 integrin (Homo sapiens, UniProt P05106+P06756) (P06756 31-889 limits assumed): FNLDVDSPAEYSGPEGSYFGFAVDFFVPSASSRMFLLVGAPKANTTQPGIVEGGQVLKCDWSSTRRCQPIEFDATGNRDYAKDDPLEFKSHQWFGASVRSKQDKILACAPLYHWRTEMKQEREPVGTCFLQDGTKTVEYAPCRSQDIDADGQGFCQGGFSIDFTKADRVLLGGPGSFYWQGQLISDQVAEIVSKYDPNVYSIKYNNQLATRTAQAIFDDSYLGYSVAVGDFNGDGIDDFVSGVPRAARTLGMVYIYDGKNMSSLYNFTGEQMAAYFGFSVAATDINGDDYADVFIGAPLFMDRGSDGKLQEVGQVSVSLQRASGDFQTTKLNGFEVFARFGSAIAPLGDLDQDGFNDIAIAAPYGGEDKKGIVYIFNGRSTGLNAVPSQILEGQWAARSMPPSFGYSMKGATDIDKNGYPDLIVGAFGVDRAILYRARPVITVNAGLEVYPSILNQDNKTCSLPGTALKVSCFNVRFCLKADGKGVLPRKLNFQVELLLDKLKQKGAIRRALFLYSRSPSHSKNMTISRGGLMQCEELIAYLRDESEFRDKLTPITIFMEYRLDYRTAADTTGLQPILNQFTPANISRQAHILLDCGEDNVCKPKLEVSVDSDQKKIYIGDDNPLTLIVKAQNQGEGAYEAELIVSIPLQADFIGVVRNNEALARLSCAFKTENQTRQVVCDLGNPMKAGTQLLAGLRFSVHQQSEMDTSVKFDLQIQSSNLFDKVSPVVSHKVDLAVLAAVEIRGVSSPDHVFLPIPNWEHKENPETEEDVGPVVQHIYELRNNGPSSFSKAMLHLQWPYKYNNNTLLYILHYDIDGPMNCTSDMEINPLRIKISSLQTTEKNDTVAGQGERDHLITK
Sequence of αvβ3 integrin (Homo sapiens, UniProt P05106+P06756) (P06756 891-1048 partner limits assumed): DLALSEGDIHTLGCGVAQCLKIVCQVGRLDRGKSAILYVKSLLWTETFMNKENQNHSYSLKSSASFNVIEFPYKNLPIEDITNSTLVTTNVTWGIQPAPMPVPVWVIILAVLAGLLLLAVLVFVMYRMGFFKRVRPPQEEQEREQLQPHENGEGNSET
Sequence of αvβ3 integrin (Homo sapiens, UniProt P05106+P06756) (P05106 27-788): as the sequence (P05106 27-788, chain 2 of 2) above

N=C(N)NCCC[C@@H]1NC(=O)CNC(=O)[C@H](N)CSSC[C@H](C(N)=O)NC(=O)[C@@H](CO)NC(=O)[C@@H](CC(=O)O)NC(=O)[C@H](CC(=O)O)NC(=O)CNC1=O [LXW5, cGRGDdsc] (H-[dC]GRGD[dD][dS][dC]-NH2; disulfide 1-8)
IC50 [1, 6]: 1 to 10 µM

N=C(N)NCCC[C@@H]1NC(=O)CNC(=O)[C@H](N)CSSC[C@H](C(N)=O)NC(=O)[C@@H](CCC(=O)O)NC(=O)[C@@H](CO)NC(=O)[C@H](CC(=O)O)NC(=O)CNC1=O [LXW3, cGRGDsec] (H-[dC]GRGD[dS][dE][dC]-NH2; disulfide 1-8)
IC50 [1, 6]: < 1 µM

N=C(N)NCCC[C@@H]1NC(=O)[C@H](CCCCN)NC(=O)[C@@H](Cc2ccccc2)NC(=O)[C@H](CC(=O)O)NC(=O)CNC1=O [cyclo (RGDfK), cyclo(RGDfK)]
liver uptake, ex vivo imaging [2]: reverse | tumor uptake, ex vivo imaging [2]: reverse

NCCCC[C@@H]1NC(=O)CNC(=O)[C@H](N)CSSC[C@H](C(N)=O)NC(=O)[C@@H](CCC(=O)O)NC(=O)[C@@H](CO)NC(=O)[C@H](CC(=O)O)NC(=O)CNC1=O [LXW4, cGKGDsec] (H-[dC]GKGD[dS][dE][dC]-NH2; disulfide 1-8)
binding affinity compared with LXW7 or the Arg parent, in words [1]: decreased the affinity

N=C(N)NCCC[C@@H]1NC(=O)CNC(=O)[C@H](N)CSSC[C@H](C(N)=O)NC(=O)[C@@H](Cc2ccccc2)NC(=O)[C@@H](CO)NC(=O)[C@H](CC(=O)O)NC(=O)CNC1=O [LXW1, cGRGDsfc] (H-[dC]GRGD[dS][dF][dC]-NH2; disulfide 1-8)
IC50 [1, 6]: 1 to 10 µM

N=C(N)NCCC[C@@H]1NC(=O)[C@H](CCC(=O)O)NC(=O)[C@@H](Cc2ccccc2)NC(=O)[C@H](CC(=O)O)NC(=O)CNC1=O [cyclo(RGDfE)]
liver uptake, ex vivo imaging [2]: reverse | tumor uptake, ex vivo imaging [2]: reverse

N=C(N)NCCC[C@@H]1NC(=O)[C@H](CCCCN)NC(=O)[C@@H](Cc2ccc(O)cc2)NC(=O)[C@H](CC(=O)O)NC(=O)CNC1=O [cyclo (RGDyK), cyclo(RGDyK)]
liver uptake, ex vivo imaging [2]: reverse | tumor uptake, ex vivo imaging [2]: reverse

N=C(N)NCCC[C@@H]1NC(=O)[C@H](CCCCNC(=O)CCC(=O)NCCOCCOCCNC(=O)CCC(=O)N[C@@H](CCCCNC(=O)CCCC[C@@H]2SC[C@@H]3NC(=O)N[C@@H]32)C(N)=O)NC(=O)[C@@H](Cc2ccccc2)NC(=O)[C@H](CC(=O)O)NC(=O)CNC1=O [cyclo (RGDfK)-Bio, Biotinylated Cyclo(RGDfK), reference compound]
IC50 ([1]; biotinylated peptides, read-out: IC50 (μM) Inhibit FITC-Echistatin binding with αvβ3-K562): 1.37 ± 0.2 µM

CC(C)[C@H]1NC(=O)[C@@H](CC(=O)O)NC(=O)[C@H](CC(=O)O)NC(=O)CNC(=O)[C@H](CCCCN)NC(=O)CNC(=O)[C@H](N)CSSC[C@H](C(N)=O)NC1=O [LXW8, cGKGDdvc] (H-[dC]GKGD[dD][dV][dC]-NH2; disulfide 1-8)
binding affinity compared with LXW7 or the Arg parent, in words [1]: decreased the affinity

NCCCC[C@@H]1NC(=O)CNC(=O)[C@H](N)CSSC[C@H](C(N)=O)NC(=O)[C@@H](CO)NC(=O)[C@@H](CC(=O)O)NC(=O)[C@H](CC(=O)O)NC(=O)CNC1=O [LXW6, cGKGDdsc] (H-[dC]GKGD[dD][dS][dC]-NH2; disulfide 1-8)
binding affinity compared with LXW7 or the Arg parent, in words [1]: decreased the affinity

N=C(N)NCCC[C@@H]1NC(=O)CNC(=O)[C@H](N)CSSC[C@H](C(N)=O)NC(=O)[C@@H](Cc2ccccc2)NC(=O)[C@@H](CC(=O)O)NC(=O)[C@H](CC(=O)O)NC(=O)CNC1=O [LXW2, cGRGDdfc] (H-[dC]GRGD[dD][dF][dC]-NH2; disulfide 1-8)
IC50 [1, 6]: 1 to 10 µM

B1: LXW39 (peptide)
peptide: CGRGD[dD][dAla(4-thiazolyl)]C-NH2
modifications: disulfide 1-8; N-terminus assumed
SMILES: N=C(N)NCCC[C@@H]1NC(=O)CNC(=O)[C@@H](N)CSSC[C@@H](C(N)=O)NC(=O)[C@@H](Cc2cscn2)NC(=O)[C@@H](CC(=O)O)NC(=O)[C@H](CC(=O)O)NC(=O)CNC1=O
notes: also called CGRGDd-DTha-C
IC50 [3]: > 10 µM

B2: LXW5 (peptide)
peptide: [dC]GRGD[dD][dS][dC]-NH2
modifications: disulfide 1-8; N-terminus assumed
SMILES: N=C(N)NCCC[C@@H]1NC(=O)CNC(=O)[C@H](N)CSSC[C@H](C(N)=O)NC(=O)[C@@H](CO)NC(=O)[C@@H](CC(=O)O)NC(=O)[C@H](CC(=O)O)NC(=O)CNC1=O
IC50 [4]: 1 to 10 µM

B3: LXW2 (peptide)
peptide: [dC]GRGD[dD][dF][dC]-NH2
modifications: disulfide 1-8; N-terminus assumed
SMILES: N=C(N)NCCC[C@@H]1NC(=O)CNC(=O)[C@H](N)CSSC[C@H](C(N)=O)NC(=O)[C@@H](Cc2ccccc2)NC(=O)[C@@H](CC(=O)O)NC(=O)[C@H](CC(=O)O)NC(=O)CNC1=O
IC50 [4]: 1 to 10 µM

B4: LXW1 (peptide)
peptide: [dC]GRGD[dS][dF][dC]-NH2
modifications: disulfide 1-8; N-terminus assumed
SMILES: N=C(N)NCCC[C@@H]1NC(=O)CNC(=O)[C@H](N)CSSC[C@H](C(N)=O)NC(=O)[C@@H](Cc2ccccc2)NC(=O)[C@@H](CO)NC(=O)[C@H](CC(=O)O)NC(=O)CNC1=O
IC50 [4]: 1 to 10 µM

B5: LXW23 (peptide)
peptide: [dC]GRGD[dD][d(αMeV)][dC]-NH2
modifications: disulfide 1-8; N-terminus assumed
SMILES: CC(C)[C@@]1(C)NC(=O)[C@@H](CC(=O)O)NC(=O)[C@H](CC(=O)O)NC(=O)CNC(=O)[C@H](CCCNC(=N)N)NC(=O)CNC(=O)[C@H](N)CSSC[C@H](C(N)=O)NC1=O
IC50 [3]: > 10 µM

B6: LXW86 (peptide)
peptide: {2‑methylthiazole‑4‑carbonyl}-[dC]GRGD[dD][dV][dC]-NH2
modifications: disulfide 1-8
IC50 [5]: < 1000 nM

B7: LXW85 (peptide)
peptide: {4‑(trifluoromethyl)benzoyl}-[dC]GRGD[dD][dV][dC]-NH2
modifications: disulfide 1-8
IC50 [5]: < 1000 nM

B8: LXW70 (peptide)
peptide: [dC]GRGD[dCit][Pro(5R-Ph)][dC]-NH2
modifications: disulfide 1-8; N-terminus assumed
SMILES: N=C(N)NCCC[C@@H]1NC(=O)CNC(=O)[C@H](N)CSSC[C@H](C(N)=O)NC(=O)[C@@H]2CC[C@H](c3ccccc3)N2C(=O)[C@@H](CCCNC(N)=O)NC(=O)[C@H](CC(=O)O)NC(=O)CNC1=O
IC50 [3]: > 10 µM

B9: LXW89 (peptide)
peptide: {2‑naphthoyl}-[dC]GRGD[dD][dV][dC]-NH2
modifications: disulfide 1-8
IC50 [5]: < 1000 nM

B10: LXW72 (peptide)
peptide: [dC]GRGD[N(CH2CH2CO)Gly][Pro(5R-Ph)][dC]-NH2
modifications: disulfide 1-8; N-terminus assumed
SMILES: N=C(N)NCCC[C@@H]1NC(=O)CNC(=O)[C@H](N)CSSC[C@H](C(N)=O)NC(=O)[C@@H]2CC[C@H](c3ccccc3)N2C(=O)CN(CCC(=O)O)C(=O)[C@H](CC(=O)O)NC(=O)CNC1=O
notes: also called cGRGD-NGlu-Ppca-c
IC50 [3]: > 10 µM
